{"source": "patent US20100055691A1", "about": "“SCREENING METHOD FOR THERAPEUTIC AGENT FOR AMYOTROPHIC LATERAL SCLEROSIS” (HISAMITSU PHARMACEUTICAL CO.,IN., priority 2006, published 2010)", "assay_type_in_all_cases": "cell-based", "key": {"[1]": {"system": "NFκB activity in HEK293 cells", "assay": "luciferase assay of induction of NFκB activity by TNF-α", "description": "Firstly, for establishing the experiment system, we screened various treatment times and doses of TNF-α to determine the optimum conditions for induction of NFκB activity by TNF-α. The luciferase assay was used for the screening. To be more specific, firstly, the NFκB gene was introduced upstream of LUC into pELAM1-Luc, which is a luciferase (LUC) reporter vector, and a vector for expressing NFκB/LUC fusion protein was prepared. Next, HEK293 cells were transfected with this expression vector. 24 h after the transfection, the cells were treated with 10 ng/mL of TNF-α for 1, 2, 4, 8, or 24 h. After that, the luciferase assay was carried out by a standard method, and the level of transcription of the NFκB, which was the target gene, was examined. FIG. 9 (A) confirms that highest NFκB activity was induced 1 h after the treatment with TNF-α.\nThe level of transcription of NFκB was measured using different concentrations of TNF-α: 10, 100, and 1000 ng/mL, keeping the treatment time constant at 1 h. FIG. 9 (B) confirms that the highest NFκB activity was induced with 100 ng/mL."}, "[2]": {"system": "NFκB protein in HEK293 cells", "assay": "western blotting of NFκB protein in cell nucleus and cytoplasm", "conditions": "100 ng/mL TNF-α for 1, 2, 4, 8 or 24 h", "description": "Furthermore, the expression level of the NFκB protein in the cell nucleus and the cytoplasm of HEK293 cells treated with 100 ng/mL of TNF-α for 1, 2, 4, 8, or 24 h was examined using western blotting (WB). For this WB, rabbit anti-NFκB p65(C-20) SC-372 (Santa Cruz) was used as the primary antibody and goat anti-rabbit SC-2004 (Santa Cruz) as the secondary antibody."}, "[3]": {"system": "Tollip and IRAK-1 complex", "assay": "immunoprecipitation of the interaction between Tollip and IRAK-1", "conditions": "HEK293 cells transfected with Tollip-Myc-pcDNA3, 100 ng/mL TNF-α for 1 h", "description": "There has been a report that Tollip binds to IRAK-1 in IL-1R/TLR signaling. We examined whether this happened in TNF-α signaling also. The experiment was carried out by the immunoprecipitation method, which can verify binding of proteins. HEK293 cells were transfected with Tollip-Myc-pcDNA3. Then, after 24 h, some of the cells were treated for 1 h with 100 ng/mL of TNF-α while others were not treated. After that, the cells were lysed and immunoprecipitation […] was carried out. For the immunoprecipitation, Chrom PumPure mouse IgG (Jackson Immunoresearch) was used as the control, mouse anti-IRAK-1(F-4)SC-5288 (Santa Cruz) and mouse anti-Myc(9B11)#2276 (Santa Cruz) were used as primary antibodies, and goat anti-mouse SC-2005 (Santa Cruz) was used as the secondary antibody."}, "Tollip": {"system": "Tollip", "assay": "cell fractionation and western blotting of the intracellular localization of Tollip", "conditions": "HEK293 cells transfected with Tollip-Myc-pcDNA3, 100 ng/mL TNF-α up to 48 h", "description": "Firstly, the intracellular localization of alsin and Tollip was examined by cell fractionation and with western blotting. To be more specific, HEK293 cells were transfected with ALS2CR6-FLAG-pIRESpuro2 or Tollip-Myc-pcDNA3 and 24 h later, the cells were lysed and fractionated by a standard method. After that, western blotting (WB) was carried out. In the WB, lamin, which is localized in the cell nucleus only, and tubulin, which is localized in the cytoplasm only, were used as controls; mouse anti-lamin B (101-B7) NA12 (CALBIOCHEM) or mouse anti-tubulin (Ab-2) (clone DM1A) (LABVISION/NEOMARKERS) were used as primary antibodies, and goat anti-mouse SC-2005 (Santa Cruz) was used as the secondary antibody.\nNext, with HEK293 cells transfected with Tollip-Myc-pcDNA3, we examined how the intracellular localization of Tollip changed by TNF-α treatment. Treatment with 100 ng/mL of TNF-α was given up to 48 h and changes in localization of Tollip were checked at different time points."}}, "data": [{"substance": "TNF-α", "values": [{"measurement": "treatment time at which highest NFκB activity was induced", "setting": "[1]; HEK293 cells, 10 ng/mL TNF-α for 1, 2, 4, 8 or 24 h", "result": 1, "unit": "h"}, {"measurement": "concentration at which highest NFκB activity was induced", "setting": "[1]; HEK293 cells, 10, 100 and 1000 ng/mL, treatment time 1 h", "result": 100, "unit": "ng/mL"}, {"measurement": "time of highest level of NFκB protein in the cell nucleus", "setting": "[2]", "result": 1, "unit": "h"}, {"measurement": "binding of Tollip and IRAK-1", "setting": "[3]", "result": "suppressed"}, {"measurement": "expression of Tollip", "setting": "Tollip", "result": "decreased the expression of Tollip"}, {"measurement": "intracellular localization of Tollip", "setting": "Tollip", "result": "made Tollip to migrate to the cell nucleus"}]}]}
